According to patent publication US3968207A, “Method of controlling fleas and ticks on cats and dogs” (priority 1975, dated 1976):
Read-outs that look alike come from different tables or passages of the source.

Key:
Format in all cases: in vivo
[1] = system: Ctenocephalides felis; assay: Flea control on dogs fed medicated diet, Table IV; set-up: key: 100% Control; PC: Partial Control; NC: No Control
Protocol: Five groups of two mongrel dogs each were fed a daily dose of 0, 6.25, 25, 100 or 400 mg. O,O,O',O'-tetramethyl O,O'-thiodi-p-phenylene phosphorothioate/kg. body weight in Agway Big Red Dog Meal. Dogs eating less than 75% of the food were given a corrected dose by gelatin capsule to equal 100%. Medication began 1 day after infesting each dog with 100 adult Ctenocephalides felis and 2 days before infesting each dog with 10 Dermacentor variabiles and 10 Rhipicephalus sanguineus adults.

[2] = system: fleas and ticks; assay: Control of fleas and ticks (general statement); conditions: topically and systemically
[3] = system: Ctenocephalides felis; assay: Topical (spray or 2% dust) flea control on dogs, Table I
Protocol: Dogs used in testing were placed in raised cages with steel grate floors. Three days prior to treatment, 100 fleas were placed on each dog. On the day of treatment each cage was lined with absorbent brown paper. Dogs were treated at various dose levels (1-60 mg./kg.) applied topically using a 2% active ingredient dust formulation, or a dilute aqueous dispersion applied as a spray. Activity was determined by the number of dead fleas recovered from the brown paper, and a systematic examination of the test animal in relation to infested, untreated control dogs.
Residual activity of the initial application of the test compound was done by experimentally reinfesting each dog at 7-day intervals with an additional 100 adult C. felis. Activity was determined as described above.

[4] = system: Amblyomma americanum; assay: Control of adult ticks on rabbits, Table II; conditions: for mortality at 0.05 % / mortality at 0.2 % / mortality at 0.4 %: Amblyomma americanum, topical, 96 h, 4 days after treatment
Protocol: The midsection of each host rabbit is clipped, and a rubber capsule is cemented to the clipped portion of the skin. After a 24-hour drying period, the 10 ticks are placed in the capsule and allowed to attack the host for 72 hours. On the day of treatment, each capsule is sprayed with 2-3 cc. of the test compound, O,O,O',O'-tetramethyl O,O'-thiodi-p-phenylene phosphorothioate. Sufficient rabbits were used to test at concentrations of 0.05%, 0.20% and 0.40% (w/w), respectively.
Mortality was noted 4 days after treatment. On those rabbits where female ticks survived, five untreated male ticks were introduced and the ticks allowed to mate. Fully engorged females were then removed from the capsule and placed in petri dishes for oviposition. Effect of fecundity is then determined by comparing the percent of eggs laid and the percent of eggs which hatch in the treated versus the controls.

[5] = system: Ctenocephalides felis; assay: 2% powder against experimental flea infestations on cats; conditions: 60 mg/kg as 2% powder
Protocol: An experiment was conducted using O,O,O',O'-tetramethyl O,O'-thiodi-p-phenylene phosphorothioate which was prepared from a 25% concentrate diluted with talc so the final powder was 2% drug. Prior to the start of the test 23 cats were classified according to sex, age, hair length and color and divided into five groups. One of these groups was then randomly selected to be the controls and the other groups were assigned for treatment in a random order. The amount of 2% drug dust applied to each cat was calculated prior to treatment to give a dose rate of 60 mg. drug/kg. The duster was weighed before treating each cat and at intervals during dusting to get as near the desired dose as possible. […] Table VII summarizes the results obtained up to 48 days after treatment.

COP(=S)(OC)Oc1ccc(Sc2ccc(OP(=S)(OC)OC)cc2)cc1 [O,O,O',O'-tetramethyl O,O'-thiodi-p-phenylene phosphorothioate]
Flea Control ([1]; 6.25 mg/kg in feed, 1 dog, after 3 days): complete flea control | Flea Control ([1]; 6.25 mg/kg in feed, other dog, after 4 days): complete flea control | Flea Control ([1]; 400, 100 or 25 mg/kg in feed, all dogs, after 48 hours): Complete flea control | Flea Control ([1]; in feed 6.25 mg/kg daily, day 2): NC and PC | Flea Control ([1]; in feed 6.25 mg/kg daily, day 4): 100 (100% Control) | Flea Control ([1]; in feed 25 mg/kg daily, day 2): 100 (100% Control) | Flea Control ([1]; in feed 100 mg/kg daily, day 2): 100 (100% Control) | Flea Control ([1]; in feed 400 mg/kg daily, day 2): 100 (100% Control) | controlling fleas and ticks [2]: highly effective | Percent Activity ([3]; 2% dust 10.0 mg/kg, day 0): 100% | Percent Activity ([3]; 2% dust 10.0 mg/kg, day 7): 100% | Percent Activity ([3]; 2% dust 10.0 mg/kg, day 14): 100% | Percent Activity ([3]; 2% dust 10.0 mg/kg, day 21): 100% | Percent Activity ([3]; 2% dust 10.0 mg/kg, day 28): 80% | Percent Activity ([3]; 2% dust 10.0 mg/kg, day 42): 0% | Percent Activity ([3]; 2% dust 20.0 mg/kg, day 0): 100% | Percent Activity ([3]; 2% dust 20.0 mg/kg, day 7): 100% | Percent Activity ([3]; 2% dust 20.0 mg/kg, day 14): 100% | Percent Activity ([3]; 2% dust 20.0 mg/kg, day 21): 100% | Percent Activity ([3]; 2% dust 20.0 mg/kg, day 28): 100% | Percent Activity ([3]; 2% dust 20.0 mg/kg, day 42): 0% | Percent Activity ([3]; 2% dust 40.0 mg/kg, day 0): 100% | Percent Activity ([3]; 2% dust 40.0 mg/kg, day 7): 100% | Percent Activity ([3]; 2% dust 40.0 mg/kg, day 14): 100% | Percent Activity ([3]; 2% dust 40.0 mg/kg, day 21): 100% | Percent Activity ([3]; 2% dust 40.0 mg/kg, day 28): 100% | Percent Activity ([3]; 2% dust 40.0 mg/kg, day 42): 0% | Percent Activity ([3]; spray 1.25 mg/kg, day 0): 100% | Percent Activity ([3]; spray 1.25 mg/kg, day 7): 100% | Percent Activity ([3]; spray 1.25 mg/kg, day 14): 100% | Percent Activity ([3]; spray 1.25 mg/kg, day 21): 100% | Percent Activity ([3]; spray 1.25 mg/kg, day 25): 0% | Percent Activity ([3]; spray 2.5 mg/kg, day 0): 100% | Percent Activity ([3]; spray 2.5 mg/kg, day 7): 100% | Percent Activity ([3]; spray 2.5 mg/kg, day 14): 100% | Percent Activity ([3]; spray 2.5 mg/kg, day 21): 0% | Percent Activity ([3]; spray 10.0 mg/kg, day 0): 100% | Percent Activity ([3]; spray 10.0 mg/kg, day 7): 100% | Percent Activity ([3]; spray 10.0 mg/kg, day 14): 100% | Percent Activity ([3]; spray 10.0 mg/kg, day 21): 100% | Percent Activity ([3]; spray 10.0 mg/kg, day 28): 10% | Eggs Hatched (%) ([4]; 0.05% (w/w)): 90% | Eggs Hatched (%) ([4]; 0.20% (w/w)): 50% | Control of ticks ([4]; 0.20% and 0.40% (w/w)): effectively controls amblyomma ticks by killing the adult males and some females and rendering the female ova non-viable | Eggs Hatched (%) ([4]; 0.40% (w/w)): 1% | mortality at 0.05 % ([4]; 0.05% (w/w), read-out: Deaths (%) Females): 10% | mortality at 0.05 % ([4]; 0.05% (w/w), read-out: Deaths (%) Males): 70% | mortality at 0.2 % ([4]; 0.20% (w/w), read-out: Deaths (%) Females): 40% | mortality at 0.2 % ([4]; 0.20% (w/w), read-out: Deaths (%) Males): 100% | mortality at 0.4 % ([4]; 0.40% (w/w), read-out: Deaths (%) Females): 50% | mortality at 0.4 % ([4]; 0.40% (w/w), read-out: Deaths (%) Males): 100% | control ([5]; fifth week): 64% | residual control against C. felis on cats ([5]; for four weeks): excellent residual control | control ([5]; for three weeks): 100% | control ([5]; fourth week): 90% | control ([5]; sixth week): 40%
